Data published in ChEMBL document CHEMBL1201862, “PubChem BioAssay data set” (2004).
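Cultured in 96-well plates, cells were exposed to test compound for 48 hours across five concentrations. GI50 is the concentration that inhibits growth by half.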 Activity calls are given as the source filed them. No stated cut-off is given here; in the data, active = GI50 up to about 1.1 µM and inactive = higher.

Experiments:
Assay in all cases: NCI tumour cell line growth inhibition, 48 h
RPMI-8226 = test system: RPMI-8226
OVCAR-4 = test system: OVCAR-4
UO-31 = test system: UO-31
786-0 = test system: 786-0
HL-60 = test system: HL-60
CAKI-1 = test system: CAKI-1
PC-3 = test system: PC-3
NCI-H522 = test system: NCI-H522
OVCAR-8 = test system: OVCAR-8
SR = test system: SR
HOP-92 = test system: HOP-92
LOX IMVI = test system: LOX IMVI
SK-OV-3 = test system: SK-OV-3
SF-539 = test system: SF-539
SK-MEL-28 = test system: SK-MEL-28
SF-295 = test system: SF-295
NCI-H226 = test system: NCI-H226
SK-MEL-5 = test system: SK-MEL-5
HCT-15 = test system: HCT-15
DU-145 = test system: DU-145

Measured: GI50

O=c1c2cc(-c3ccccc3)sc2nc2n1N=C(c1ccc(Cl)cc1)CS2
inactive: RPMI-8226 > 100 µM | OVCAR-4 > 100 µM | UO-31 > 100 µM | 786-0 > 100 µM | HL-60 > 100 µM | CAKI-1 > 100 µM | PC-3 > 100 µM | NCI-H522 > 100 µM | OVCAR-8 > 100 µM | SR > 100 µM | HOP-92 > 100 µM | LOX IMVI > 100 µM | SK-OV-3 > 100 µM | SF-539 > 100 µM | SK-MEL-28 > 100 µM | SF-295 > 100 µM | NCI-H226 > 100 µM | SK-MEL-5 > 100 µM | DU-145 > 100 µM
> 100 µM: HCT-15

COC(=O)[C@H](CCSC)NC(=O)N[C@H](C)c1ccccc1
> 100 µM: HCT-15
inactive: RPMI-8226 > 100 µM | OVCAR-4 > 100 µM | UO-31 > 100 µM | 786-0 > 100 µM | HL-60 > 100 µM | CAKI-1 > 100 µM | PC-3 > 100 µM | NCI-H522 26.1 µM | OVCAR-8 > 100 µM | SR > 100 µM | HOP-92 43.5 µM | LOX IMVI > 100 µM | SK-OV-3 > 100 µM | SF-539 > 100 µM | SK-MEL-28 > 100 µM | SF-295 > 100 µM | NCI-H226 > 100 µM | SK-MEL-5 > 100 µM | DU-145 > 100 µM

CC1=CC(=O)/C(=C/n2c(=S)[nH]c3ccc([N+](=O)[O-])cc32)C(=O)O1
inactive: RPMI-8226 > 100 µM | OVCAR-4 > 100 µM | UO-31 > 100 µM | 786-0 > 100 µM | HL-60 2.09 µM | PC-3 > 100 µM | NCI-H522 > 100 µM | OVCAR-8 > 100 µM | SR > 100 µM | HOP-92 > 100 µM | LOX IMVI > 100 µM | SK-OV-3 > 100 µM | SF-539 > 100 µM | SK-MEL-28 > 100 µM | SF-295 > 100 µM | NCI-H226 > 100 µM | SK-MEL-5 > 100 µM | DU-145 > 100 µM
> 100 µM: HCT-15

CCN(CC)C(=O)Cn1c(-c2ccccc2)cc2ccccc21
43.3 µM: HCT-15
inactive: RPMI-8226 > 10 µM | OVCAR-4 66.8 µM | UO-31 17.5 µM | 786-0 45.1 µM | HL-60 47.4 µM | PC-3 22.9 µM | NCI-H522 28 µM | OVCAR-8 35.9 µM | SR 32.5 µM | HOP-92 27.7 µM | LOX IMVI 25.4 µM | SK-OV-3 40.8 µM | SF-539 34.4 µM | SK-MEL-28 52.6 µM | NCI-H226 42.7 µM | SK-MEL-5 15.6 µM | DU-145 56 µM

O=c1[nH]cc(/N=C/c2cc(Cl)cc(Cl)c2O)c(=O)[nH]1
inactive: RPMI-8226 22.1 µM | OVCAR-4 21.3 µM | UO-31 29.5 µM | 786-0 20.7 µM | HL-60 13.6 µM | CAKI-1 24.6 µM | PC-3 27.8 µM | NCI-H522 21.5 µM | OVCAR-8 43.1 µM | SR 14.3 µM | HOP-92 27.4 µM | SK-OV-3 24.7 µM | SF-539 24.1 µM | SK-MEL-28 22.9 µM | SF-295 47.3 µM | NCI-H226 23.4 µM | SK-MEL-5 19.1 µM | DU-145 23 µM
36.4 µM: HCT-15

CCO[C@H]1O[C@@H]2OC3(C)CCC4[C@H](C)CCC([C@H]1C)[C@]42OO3 (stereo partly specified)
active: HL-60 0.159 µM | PC-3 0.729 µM | OVCAR-8 0.881 µM
inactive: RPMI-8226 3.3 µM | OVCAR-4 25.8 µM | UO-31 15.4 µM | 786-0 57.5 µM | CAKI-1 > 100 µM | NCI-H522 43.5 µM | SR 10.3 µM | HOP-92 > 100 µM | LOX IMVI 24.2 µM | SK-OV-3 > 100 µM | SF-539 > 84.7 µM | SK-MEL-28 > 75.5 µM | SF-295 > 20.2 µM | NCI-H226 > 100 µM | SK-MEL-5 16 µM | DU-145 > 100 µM
23.9 µM: HCT-15
